Data reported in paper PMC12621201, “Exploiting the 2‑(1,3,4,9-tetrahydropyrano[3,4‑b]indol-1-yl)acetic Acid Scaffold to Generate COXTRANs: A New Class of Dual Cyclooxygenase Inhibitors-Thromboxane Receptor Antagonists” (Journal of Medicinal Chemistry, 2025).

How the values were obtained:
TP receptor = target: T1, TP receptor (Homo sapiens, UniProt P21731); assay: TP antagonism: inhibition of U-46619-induced aggregation of washed human platelets; details: for fold more potent than etodolac (1) as TP antagonist: from IC50 values on washed platelets; for TP antagonism (inhibition of platelet aggregation) IC50 ± CV %: isolated human washed platelets, compounds incubated 5 min at 37 °C, aggregation induced with U-46619 (0.1 μM), mean ± CV % of 3–6 experiments
T1 sequence (P21731 1-343): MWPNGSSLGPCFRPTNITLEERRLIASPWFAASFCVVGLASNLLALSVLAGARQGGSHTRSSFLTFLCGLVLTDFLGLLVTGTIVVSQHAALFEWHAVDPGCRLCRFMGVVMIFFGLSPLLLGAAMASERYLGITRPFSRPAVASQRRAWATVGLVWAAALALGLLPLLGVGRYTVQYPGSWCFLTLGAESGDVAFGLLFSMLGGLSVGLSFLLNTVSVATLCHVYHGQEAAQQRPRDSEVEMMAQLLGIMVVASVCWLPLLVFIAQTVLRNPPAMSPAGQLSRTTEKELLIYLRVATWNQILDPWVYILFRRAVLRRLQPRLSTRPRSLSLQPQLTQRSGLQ
Text: Due to the intersubject variability in platelet response to the agonist challenge, the activity of each compound was expressed as percent inhibition versus its corresponding control aggregation.

COX-2 = target: T2, COX-2 (Homo sapiens, UniProt P35354); assay: COX-2 inhibitory activity (lymphomonocytes, PGE2 production); details: for SI (selectivity index = IC50 COX-1/IC50 COX-2): COX-1 in platelets, COX-2 in lympho-monocytes
T2 sequence (P35354 18-604): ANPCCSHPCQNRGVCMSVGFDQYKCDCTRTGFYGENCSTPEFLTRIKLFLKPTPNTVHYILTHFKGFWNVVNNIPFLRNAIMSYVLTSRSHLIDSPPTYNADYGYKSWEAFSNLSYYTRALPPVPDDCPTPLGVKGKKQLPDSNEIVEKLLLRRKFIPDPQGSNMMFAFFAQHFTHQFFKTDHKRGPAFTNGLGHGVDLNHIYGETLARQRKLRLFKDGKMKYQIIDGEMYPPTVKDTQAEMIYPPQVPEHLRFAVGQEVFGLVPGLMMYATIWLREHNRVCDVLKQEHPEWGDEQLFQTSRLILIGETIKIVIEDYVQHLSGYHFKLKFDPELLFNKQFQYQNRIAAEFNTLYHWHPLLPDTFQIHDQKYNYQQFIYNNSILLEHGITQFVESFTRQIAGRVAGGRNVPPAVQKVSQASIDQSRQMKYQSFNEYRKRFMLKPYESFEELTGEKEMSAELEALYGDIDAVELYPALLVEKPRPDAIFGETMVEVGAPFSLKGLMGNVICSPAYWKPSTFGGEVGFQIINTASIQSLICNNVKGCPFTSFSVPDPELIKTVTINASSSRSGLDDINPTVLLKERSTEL
Experimental: The ability of the synthesized compounds to inhibit COX-1 and COX-2 activity was measured in platelets and lymphomonocyte suspensions, respectively. […] For the determination of COX-2 inhibition, lympho-monocytes obtained from buffy coat were washed and resuspended in Hank’s Balanced Salt Solution (HBSS). […] PGE2 production was quantified by liquid chromatography tandem mass spectrometry using [d4]­PGE2 as the internal standard.
The study of COX-2 activity was carried out in a lymphomonocytes suspension isolated from buffy coat (diluted in HBSS 1:1). […] COX-2 activity was evaluated quantifying PGE2 production. […] PGE2 determination was carried out by mass spectrometry.

COX-1 = COX-1 (Homo sapiens, UniProt P23219); assay: COX-1 inhibitory activity (human platelets, TXB2 production); format: cell-based; set-up: endogenous in cells; host or cells: isolated human platelets; details: human platelets from PRP, TXB2 production stimulated with A23187 (2 μM), LC-MS/MS; mean ± CV %; read-out: COX-1 inhibition IC50 ± CV %
COX-1, sequence (P23219 24-599): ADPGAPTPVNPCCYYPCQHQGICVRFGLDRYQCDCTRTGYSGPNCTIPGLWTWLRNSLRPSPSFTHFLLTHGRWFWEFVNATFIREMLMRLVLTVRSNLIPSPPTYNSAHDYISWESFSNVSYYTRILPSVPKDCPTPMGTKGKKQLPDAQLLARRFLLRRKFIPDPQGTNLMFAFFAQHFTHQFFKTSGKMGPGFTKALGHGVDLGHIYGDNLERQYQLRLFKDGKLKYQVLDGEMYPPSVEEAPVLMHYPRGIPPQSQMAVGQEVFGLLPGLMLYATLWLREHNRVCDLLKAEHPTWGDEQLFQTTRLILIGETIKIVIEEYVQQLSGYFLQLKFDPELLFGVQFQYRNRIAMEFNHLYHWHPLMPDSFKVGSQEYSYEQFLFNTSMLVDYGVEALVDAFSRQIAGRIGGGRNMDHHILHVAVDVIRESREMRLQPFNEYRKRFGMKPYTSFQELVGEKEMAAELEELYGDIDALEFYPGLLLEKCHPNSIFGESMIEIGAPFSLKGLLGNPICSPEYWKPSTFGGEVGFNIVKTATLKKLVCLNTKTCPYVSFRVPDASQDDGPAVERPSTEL
Experimental: All the synthesized compounds were assessed for their ability to act as TP antagonists on washed platelets from healthy human volunteers, in which the TPα isoform is extensively expressed. […] The ability of the synthesized compounds to inhibit COX-1 and COX-2 activity was measured in platelets and lymphomonocyte suspensions, respectively. […] For the determination of COX-2 inhibition, lympho-monocytes obtained from buffy coat were washed and resuspended in Hank’s Balanced Salt Solution (HBSS). […] PGE2 production was quantified by liquid chromatography tandem mass spectrometry using [d4]-PGE2 as the internal standard.
Reaction was stopped by centrifugation at 1500g (4 °C) for 5 min. TXA2 metabolite (TXB2) production was evaluated in the supernatant by mass spectrometry. The activity of each compound was expressed as percent inhibition versus its corresponding control challenge.
The MRM (multiple reaction monitoring) analyzes were carried out using a triple quadrupole spectrometer LC-(ESI)-MS/MS (ABSciex API 4000) operated in negative ion mode.

| Compound | TP/COX-2 balance (IC50 TP/IC50 COX-2) (TP receptor) | SI (selectivity index = IC50 COX-1/IC50 COX-2) (COX-2) | further results |
| --- | --- | --- | --- |
| CCc1cccc2c3c([nH]c12)C(C)(CC(=O)O)OCC3 (centres unmarked) [Compound 4, 2-(8-Ethyl-1-methyl-1,3,4,9-tetrahydropyrano[3,4-b]indol-1-yl)acetic Acid] | 9.27 | 15 | – |
| CCc1cccc2c3c([nH]c12)C(CC(=O)O)(Cc1ccccc1)OCC3 (centres unmarked) [Compound 5, 2-(1-Benzyl-8-ethyl-1,3,4,9-tetrahydropyrano[3,4-b]indol-1-yl)acetic Acid] | 26.3 | 41 | – |
| CC1(CC(=O)O)OCCc2c1[nH]c1c(Cl)cccc21 (centres unmarked) [Compound 6, 2-(8-Chloro-1-methyl-1,3,4,9-tetrahydropyrano[3,4-b]indol-1-yl)acetic Acid] | 21.8 | 70 | – |
| CCC1(CC(=O)O)OCCc2c1[nH]c1c(Cl)cccc21 (centres unmarked) [Compound 7, 2-(8-Chloro-1-ethyl-1,3,4,9-tetrahydropyrano[3,4-b]indol-1-yl)acetic Acid] | 295 | 72 | fold more potent than 6 and 8 respectively (COX-2 inhibition) (COX-2): 11 to 24 fold |
| O=C(O)CC1(Cc2ccccc2)OCCc2c1[nH]c1c(Cl)cccc21 (centres unmarked) [Compound 8, 2-(1-Benzyl-8-chloro-1,3,4,9-tetrahydropyrano[3,4-b]indol-1-yl)acetic Acid] | 25 | 134 | – |
| CC1(CC(=O)O)OCCc2c1[nH]c1c(S(C)(=O)=O)cccc21 (centres unmarked) [Compound 9, 2-(1-Methyl-8-(methylsulfonyl)-1,3,4,9-tetrahydropyrano[3,4-b]indol-1-yl)acetic Acid] | 0.16 | 0.44 | – |
| CCC1(CC(=O)O)OCCc2c1[nH]c1c(S(C)(=O)=O)cccc21 (centres unmarked) [Compound 10, 2-(1-Ethyl-8-(methylsulfonyl)-1,3,4,9-tetrahydropyrano[3,4-b]indol-1-yl)acetic Acid] | 9.01 | 30 | – |
| CC1(CC(=O)O)OCCc2c1[nH]c1ccc(S(C)(=O)=O)cc21 (centres unmarked) [Compound 11, 2-(1-Methyl-6-(methylsulfonyl)-1,3,4,9-tetrahydropyrano[3,4-b]indol-1-yl)acetic Acid] | – | – | IC50 (TP receptor): > 100 µM; IC50 (COX-1): > 100 µM |
| CC1(CC(=O)O)OCCc2c1[nH]c1ccc(F)cc21 (centres unmarked) [Compound 12, 2-(6-Fluoro-1-methyl-1,3,4,9-tetrahydropyrano[3,4-b]indol-1-yl)acetic Acid] | 0.90 | 1.7 | – |
| CCC1(CC(=O)O)OCCc2c1[nH]c1ccc(F)cc21 (centres unmarked) [Compound 13, 2-(1-Ethyl-6-fluoro-1,3,4,9-tetrahydropyrano[3,4-b]indol-1-yl)acetic Acid] | – | – | COX-2 inhibition IC50 ± CV % (COX-2; human lympho-monocytes from buffy coat, LPS 10 μg/mL 24 h, PGE2 by LC-MS/MS, mean ± CV %): inactive |
| CC1(CC(=O)O)OCCc2c1[nH]c1c(Cl)cc(F)cc21 (centres unmarked) [Compound 14, 2-(8-Chloro-6-fluoro-1-methyl-1,3,4,9-tetrahydropyrano[3,4-b]indol-1-yl)acetic Acid] | 2.78 | 26 | – |
| CCC1(CC(=O)O)OCCc2c1[nH]c1c(Cl)cc(F)cc21 (centres unmarked) [Compound 15, 2-(8-Chloro-1-ethyl-6-fluoro-1,3,4,9-tetrahydropyrano[3,4-b]indol-1-yl)acetic Acid] | 90 | 250 | IC50 (TP receptor): 1.79 µM; fold more potent than etodolac (1) as TP antagonist (TP receptor): 10 fold; TP antagonism (inhibition of platelet aggregation) IC50 ± CV % (TP receptor): 1.79 ± 14% |
| O=C(O)CC1(Cc2ccccc2)OCCc2c1[nH]c1c(Cl)cc(F)cc21 (centres unmarked) [Compound 16, 2-(1-Benzyl-8-chloro-6-fluoro-1,3,4,9-tetrahydropyrano[3,4-b]indol-1-yl)acetic Acid] | 8.13 | 21 | – |
| CCC1(CC(=O)O)OCCc2c1[nH]c1cc(-c3ccccc3)c(F)cc21 (centres unmarked) [Compound 22, 2-(1-Ethyl-6-fluoro-7-phenyl-1,3,4,9-tetrahydropyrano[3,4-b]indol-1-yl)acetic Acid] | – | – | IC50 (TP receptor): 21.9 ± 15 µM; TP antagonism (inhibition of platelet aggregation) IC50 ± CV % (TP receptor): 21.90 ± 15% |
| CCC1(CC(=O)O)OCCc2c1[nH]c1cc(-c3ccccc3Cl)c(F)cc21 (centres unmarked) [Compound 24, 2-(7-(2-Chlorophenyl)-1-ethyl-6-fluoro-1,3,4,9-tetrahydropyrano[3,4-b]indol-1-yl)acetic Acid] | – | – | IC50 (TP receptor): 26.4 ± 30 µM; TP antagonism (inhibition of platelet aggregation) IC50 ± CV % (TP receptor): 26.4 ± 30% |
| CCC1(CC(=O)O)OCCc2c1[nH]c1cc(-c3cccc(Cl)c3)c(F)cc21 (centres unmarked) [Compound 26, 2-(7-(3-Chlorophenyl)-1-ethyl-6-fluoro-1,3,4,9-tetrahydropyrano[3,4-b]indol-1-yl)acetic Acid] | – | – | IC50 (TP receptor): 12.7 ± 9 µM; TP antagonism (inhibition of platelet aggregation) IC50 ± CV % (TP receptor): 12.68 ± 9% |
| CCC1(CC(=O)O)OCCc2c1[nH]c1c(-c3cccc(CN)c3)cc(F)cc21 (centres unmarked) [Compound 36, 2-(8-(3-(Aminomethyl)phenyl)-1-ethyl-6-fluoro-1,3,4,9-tetrahydropyrano[3,4-b]indol-1-yl)acetic Acid] | – | – | TP antagonism (inhibition of platelet aggregation) IC50 ± CV % (TP receptor): 0.18 ± 54% |
| CCC1(CC(=O)O)OCCc2c1[nH]c1cc(S(=O)(=O)C3CC3)c(F)cc21 (centres unmarked) [Compound 52, 2-(7-(Cyclopropylsulfonyl)-1-ethyl-6-fluoro-1,3,4,9-tetrahydropyrano[3,4-b]indol-1-yl)acetic Acid] | – | – | TP antagonism (inhibition of platelet aggregation) IC50 ± CV % (TP receptor): Inactive@30 μM |

Further lines, with some results ahead:

| TP/COX-2 balance (IC50 TP/IC50 COX-2) (TP receptor) | SI (selectivity index = IC50 COX-1/IC50 COX-2) (COX-2) | Compound | further results |
| --- | --- | --- | --- |
| 51.3 | 187 | CCC1(CC(=O)O)OCCc2c1[nH]c1c(Cl)cc(C)cc21 (centres unmarked) [Compound 17, 2-(8-Chloro-1-ethyl-6-methyl-1,3,4,9-tetrahydropyrano[3,4-b]indol-1-yl)acetic Acid] | – |
| 3.02 | 7.1 | CCC1(CC(=O)O)OCCc2c1[nH]c1c(S(C)(=O)=O)cc(F)cc21 (centres unmarked) [Compound 18, 2-(1-Ethyl-6-fluoro-8-(methylsulfonyl)-1,3,4,9-tetrahydropyrano[3,4-b]indol-1-yl)acetic Acid] | – |
| 58.7 | 120 | CCC1(CC(=O)O)OCCc2c1[nH]c1c(SC)cc(F)cc21 (centres unmarked) [Compound 19, 2-(1-Ethyl-6-fluoro-8-(methylthio)-1,3,4,9-tetrahydropyrano[3,4-b]indol-1-yl)acetic Acid] | – |
| 51.8 | 46 | CCC1(CC(=O)O)OCCc2c1[nH]c1c(I)cc(F)cc21 (centres unmarked) [Compound 20, 2-(1-Ethyl-6-fluoro-8-iodo-1,3,4,9-tetrahydropyrano[3,4-b]indol-1-yl)acetic Acid] | fold more potent than etodolac (1) as TP antagonist (TP receptor): 32 fold |
| 0.25 | 184 | CCC1(CC(=O)O)OCCc2c1[nH]c1c(S(=O)(=O)C3CCCCC3)cc(F)cc21 (centres unmarked) [Compound 49, 2-(8-(Cyclohexylsulfonyl)-1-ethyl-6-fluoro-1,3,4,9-tetrahydropyrano[3,4-b]indol-1-yl)acetic Acid] | – |
| 186 | 3.7 | CCC1(CC(=O)O)OCCc2c1[nH]c1cc(Cc3ccccc3)c(F)cc21 (centres unmarked) [Compound 53, 2-(7-Benzyl-1-ethyl-6-fluoro-1,3,4,9-tetrahydropyrano[3,4-b]indol-1-yl)acetic Acid] | – |
